Results on 22 compounds are retold here after ChEMBL document CHEMBL5233247, “Recent advances in DNA gyrase-targeted antimicrobial agents” (Eur J Med Chem, 2020).

In test [1] the target is T1, DNA gyrase (Staphylococcus aureus, UniProt P0A0K8+P20831). Put plainly: Inhibition of Staphylococcus aureus DNA gyrase. The test is classed as protein-complex assay.
Test [2] deals with DNA gyrase (Escherichia coli, UniProt P0AES4+P0AES6). The test is described as follows: Inhibition of Escherichia coli DNA gyrase. The test is classed as protein-complex assay.
Test [3] has as its system Mycobacterium tuberculosis. The test is described as follows: Antimycobacterial activity against Mycobacterium tuberculosis incubated for 7 days by MABA assay. The following applies: 168 h, time 7 day. In kind it is functional. A general note: The colour change of resazurin is a common sign of viable cells or microbes.
Test [4] addresses T2, DNA gyrase subunit A/DNA gyrase subunit B (Mycobacterium tuberculosis (strain ATCC 25618 / H37Rv), UniProt P9WG45+P9WG47). The test is described as follows: Inhibition of Mycobacterium tuberculosis (MTB) DNA gyrase using pBR322 DNA by supercoiling assay. In kind it is protein-complex assay.
Test [5] deals with Aggregatibacter actinomycetemcomitans. The test is described as follows: Antibacterial activity against Aggregatibacter actinomycetemcomitans. In kind it is functional.
The subject of another test is Bacillus subtilis. Put plainly: Antibacterial activity against Bacillus subtilis. In kind it is functional.
The test system of another test is Acinetobacter baumannii. Put plainly: Antibacterial activity against Acinetobacter baumannii. The test is classed as functional.
In a further test the test system is Enterococcus faecalis. Put plainly: Antibacterial activity against Enterococcus faecalis. In kind it is functional.
The subject of test [6] is Staphylococcus aureus. The test is described as follows: Antibacterial activity against healthcare-acquired methicillin-resistant Staphylococcus aureus. The test is classed as functional.
The test system of test [7] is Staphylococcus aureus. Put plainly: Antibacterial activity against community-acquired methicillin-resistant Staphylococcus aureus. The test is classed as functional.
Test [8] deals with Staphylococcus aureus. The test is described as follows: Antibacterial activity against methicillin-sensitive Staphylococcus aureus. The test is classed as functional, organism-based.
Another test has as its system Streptococcus pneumoniae. The test is described as follows: Antibacterial activity against Streptococcus pneumoniae. The test is classed as functional.
In test [9] the target is T2, DNA gyrase subunit A/DNA gyrase subunit B. The test is described as follows: Inhibition of Mycobacterium tuberculosis DNA gyrase. The test is classed as protein-complex assay.
Test [10] has as its target T1, DNA gyrase. The test is described as follows: Inhibition of Staphylococcus aureus DNA gyrase assessed as relaxation of pBR322 DNA by supercoiling assay. In kind it is protein-complex assay.
Test [11] has as its system Mycobacterium tuberculosis. The test is described as follows: Antitubercular activity against Mycobacterium tuberculosis H37Rv MTCC-200. The test is classed as functional.
Test [12] relates to Staphylococcus aureus. Put plainly: Antibacterial activity against methicillin-resistant Staphylococcus aureus. The test is classed as functional, organism-based.
In another test the test system is Bacillus cereus. The test is described as follows: Antibacterial activity against Bacillus cereus. In kind it is functional.
Test [13] concerns Mycolicibacterium smegmatis. The test is described as follows: Antibacterial activity against Mycobacterium smegmatis. In kind it is functional.
Another test relates to Escherichia coli. Put plainly: Antibacterial activity against Escherichia coli. The test is classed as functional.
Test [14] has as its system Staphylococcus aureus. Put plainly: Antibacterial activity against Staphylococcus aureus. The test is classed as functional.
For the next test, the system named is Pseudomonas aeruginosa. Put plainly: Antibacterial activity against Pseudomonas aeruginosa. The test is classed as functional.
A further test has as its system Klebsiella pneumoniae. Put plainly: Antibacterial activity against Klebsiella pneumoniae. In kind it is functional.

≈ marks a conversion by molar mass, not a printed value.

T2 sequence (P9WG45 whole entry): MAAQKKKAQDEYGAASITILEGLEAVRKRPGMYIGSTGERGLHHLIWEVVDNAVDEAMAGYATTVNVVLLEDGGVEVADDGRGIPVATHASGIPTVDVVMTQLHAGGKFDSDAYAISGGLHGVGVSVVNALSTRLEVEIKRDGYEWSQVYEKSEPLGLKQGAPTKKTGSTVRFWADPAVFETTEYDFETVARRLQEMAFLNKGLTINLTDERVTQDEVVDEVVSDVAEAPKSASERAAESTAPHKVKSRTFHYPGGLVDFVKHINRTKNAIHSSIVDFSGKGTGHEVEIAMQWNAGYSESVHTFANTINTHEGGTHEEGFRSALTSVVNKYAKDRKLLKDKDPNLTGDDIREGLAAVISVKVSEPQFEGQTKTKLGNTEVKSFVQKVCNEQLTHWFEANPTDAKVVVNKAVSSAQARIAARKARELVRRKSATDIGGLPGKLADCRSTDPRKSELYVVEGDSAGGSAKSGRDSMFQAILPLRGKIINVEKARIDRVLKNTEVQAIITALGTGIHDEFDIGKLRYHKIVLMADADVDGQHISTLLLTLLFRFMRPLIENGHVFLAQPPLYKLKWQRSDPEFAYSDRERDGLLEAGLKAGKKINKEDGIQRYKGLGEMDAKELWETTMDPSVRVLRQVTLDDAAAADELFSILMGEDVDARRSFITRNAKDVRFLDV
T2 sequence (P9WG47 whole entry): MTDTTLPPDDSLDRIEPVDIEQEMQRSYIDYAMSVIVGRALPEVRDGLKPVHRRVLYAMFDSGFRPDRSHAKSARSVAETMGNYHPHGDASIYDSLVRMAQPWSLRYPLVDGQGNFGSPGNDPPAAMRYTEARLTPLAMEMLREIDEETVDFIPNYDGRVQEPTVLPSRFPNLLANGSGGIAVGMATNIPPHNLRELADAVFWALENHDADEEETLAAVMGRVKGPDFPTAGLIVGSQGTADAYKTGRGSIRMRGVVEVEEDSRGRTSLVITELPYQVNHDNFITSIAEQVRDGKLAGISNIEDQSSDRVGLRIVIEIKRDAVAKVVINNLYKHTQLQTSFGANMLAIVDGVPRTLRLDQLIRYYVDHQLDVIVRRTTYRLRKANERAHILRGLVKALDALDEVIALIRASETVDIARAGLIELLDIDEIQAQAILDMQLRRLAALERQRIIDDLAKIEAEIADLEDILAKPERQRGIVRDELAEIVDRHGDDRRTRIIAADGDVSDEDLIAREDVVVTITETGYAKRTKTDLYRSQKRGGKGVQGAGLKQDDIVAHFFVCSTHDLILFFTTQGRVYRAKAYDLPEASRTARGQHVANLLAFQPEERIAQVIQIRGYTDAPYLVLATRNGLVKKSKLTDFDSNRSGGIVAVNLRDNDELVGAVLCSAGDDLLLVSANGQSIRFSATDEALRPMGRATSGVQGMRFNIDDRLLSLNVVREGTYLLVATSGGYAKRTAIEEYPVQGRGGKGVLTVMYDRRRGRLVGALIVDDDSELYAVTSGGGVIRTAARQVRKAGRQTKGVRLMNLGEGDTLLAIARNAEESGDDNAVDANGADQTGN
T1 sequence (P0A0K8 whole entry): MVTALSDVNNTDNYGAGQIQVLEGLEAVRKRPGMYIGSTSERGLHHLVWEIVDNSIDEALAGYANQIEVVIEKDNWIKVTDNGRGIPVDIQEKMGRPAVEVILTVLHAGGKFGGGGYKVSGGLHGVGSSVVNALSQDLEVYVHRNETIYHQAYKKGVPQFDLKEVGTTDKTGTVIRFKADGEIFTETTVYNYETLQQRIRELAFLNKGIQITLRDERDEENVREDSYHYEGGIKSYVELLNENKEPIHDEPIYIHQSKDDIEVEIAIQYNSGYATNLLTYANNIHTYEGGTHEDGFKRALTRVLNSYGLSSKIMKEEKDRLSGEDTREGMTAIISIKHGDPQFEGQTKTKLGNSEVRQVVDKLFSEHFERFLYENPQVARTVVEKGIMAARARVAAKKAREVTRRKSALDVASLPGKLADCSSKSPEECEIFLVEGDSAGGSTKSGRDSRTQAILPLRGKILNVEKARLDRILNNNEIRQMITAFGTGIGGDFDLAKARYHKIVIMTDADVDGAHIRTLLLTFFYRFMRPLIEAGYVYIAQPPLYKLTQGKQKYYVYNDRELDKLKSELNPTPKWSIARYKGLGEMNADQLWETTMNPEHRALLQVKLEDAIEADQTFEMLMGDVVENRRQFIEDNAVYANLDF
T1 sequence (P20831 whole entry): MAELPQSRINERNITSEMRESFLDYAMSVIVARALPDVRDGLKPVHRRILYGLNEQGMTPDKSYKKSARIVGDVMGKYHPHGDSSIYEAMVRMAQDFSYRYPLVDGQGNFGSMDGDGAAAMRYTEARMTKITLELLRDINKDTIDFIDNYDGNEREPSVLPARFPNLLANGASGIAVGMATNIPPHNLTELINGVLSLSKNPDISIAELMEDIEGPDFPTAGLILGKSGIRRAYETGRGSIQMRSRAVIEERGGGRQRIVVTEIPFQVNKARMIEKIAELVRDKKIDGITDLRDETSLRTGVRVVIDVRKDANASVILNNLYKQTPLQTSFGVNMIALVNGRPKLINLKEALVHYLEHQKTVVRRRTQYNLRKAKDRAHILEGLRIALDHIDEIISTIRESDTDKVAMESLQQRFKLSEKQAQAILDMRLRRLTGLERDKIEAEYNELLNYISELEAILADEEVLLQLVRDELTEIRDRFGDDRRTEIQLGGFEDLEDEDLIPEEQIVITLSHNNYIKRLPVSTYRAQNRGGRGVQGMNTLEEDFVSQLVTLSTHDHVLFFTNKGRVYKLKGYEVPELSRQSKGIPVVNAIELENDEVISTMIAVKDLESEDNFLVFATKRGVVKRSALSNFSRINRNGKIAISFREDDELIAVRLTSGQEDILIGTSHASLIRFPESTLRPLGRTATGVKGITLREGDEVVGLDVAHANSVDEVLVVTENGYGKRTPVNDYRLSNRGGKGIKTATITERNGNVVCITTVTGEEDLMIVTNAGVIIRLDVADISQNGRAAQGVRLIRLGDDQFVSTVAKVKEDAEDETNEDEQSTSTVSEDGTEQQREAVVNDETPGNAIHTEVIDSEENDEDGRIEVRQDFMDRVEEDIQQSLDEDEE

Usually IC50 stands for the concentration needed to halve the response being measured. Turning to `O=C(O)CCC(=O)Nc1ccc(NC(=O)c2ccco2)cc1`, on DNA gyrase [1], half-maximal inhibition (IC50) required 12900 nM.

Compound `O=C(O)C(=O)Nc1ccc(NC(=O)c2cc(Br)c(Br)[nH]2)cc1` registered an IC50 against DNA gyrase [2] of 180 nM.

In [3], `Cc1ccc(NC(=S)N2CCN(c3nc(=O)c4cc([N+](=O)[O-])ccc4s3)CC2)cc1` yielded an MIC of 1.82 µM (≈ 0.804 µg/mL). Further, the IC50 in test [4] was 770 nM.

As for `O=c1nc(N2CCN(C(=S)Nc3ccc(Cl)cc3)CC2)sc2ccc([N+](=O)[O-])cc12`, the MIC in test [3] was found to be 2.83 µM (≈ 1.31 µg/mL). The IC50 in test [4] was found to be 820 nM.

On to `O=c1nc(N2CCN(C(=S)Nc3ccccc3)CC2)sc2ccc([N+](=O)[O-])cc12`, for which the MIC in test [3] amounted to 4.41 µM (≈ 1.89 µg/mL). This compound also showed an IC50 in [4] of 510 nM.

Consider `O=C(O)C(=O)Nc1nc2ccc(NC(=O)c3cc(Br)c(Br)[nH]3)cc2s1`, for which the midpoint of inhibition against DNA gyrase [2], the IC50, lay at 58 nM.

In turn, `O=C(O)CNC(=O)Cc1csc(NC(=O)c2cc(Br)c(Br)[nH]2)n1` showed an IC50 at DNA gyrase [2] of 15900 nM.

On DNA gyrase [2], `COc1ccc2c3conc3c(=O)n(CCN3CCC(NCc4ccc5c(n4)NC(=O)CO5)CC3)c2c1` showed an IC50 of 416 nM.

In turn, `CCn1cc(-c2nc(NC(=O)c3ccccc3)n[nH]2)c(=O)c2cc(Br)c(C)nc21` had an MIC in [5] of 4.25 µM (≈ 1.93 µg/mL).

Compound `CCn1cc(-c2nc(NC(=O)c3ccccc3)n[nH]2)c(=O)c2ccc(C)nc21` yielded an MIC against Bacillus subtilis of 3.68 µM (≈ 1.38 µg/mL). On DNA gyrase [2], this compound had a half-inhibitory concentration (IC50) of 10400 nM.

On to `COc1c(N2CC3CCCCC3C2)c(F)cc2c(=O)c(C(=O)N3CCSC3)cn(C3CC3)c12` (stereo not given), for which the MIC was 101 µg/mL (≈ 214 µM) in the test on Acinetobacter baumannii; 12.6 µg/mL (≈ 26.7 µM) in the test with Enterococcus faecalis; 0.79 µg/mL (≈ 1.68 µM) in the test on Staphylococcus aureus [6]; 25 µg/mL (≈ 53 µM) with Staphylococcus aureus [7]; 0.79 µg/mL (≈ 1.68 µM) in the test with Staphylococcus aureus [8]; 50 µg/mL (≈ 106 µM) against Streptococcus pneumoniae. In [9], this compound came in with an IC50 of 105000 nM.

Consider `COC(=O)c1ccc(CNC(=O)[C@H](Cc2ccc(O)cc2)NC(=O)c2cc(Br)c(Br)[nH]2)cc1`, for which the IC50 at DNA gyrase [2] is 970 nM.

For the compound `COc1cc2c(cc1OCCCC(=O)Nc1cc(C(=O)Nc3ccc4occc4c3)n(C)c1)N=C[C@@H]1CCCN1C2=O`, the IC50 on DNA gyrase [10] is 2900 nM.

The compound `O=C1COc2ccc(CNC3CCN(CCn4c(=O)c5nocc5c5ncccc54)CC3)nc2N1` gave a half-maximal inhibitory concentration (IC50) on DNA gyrase [2] of 442 nM.

`COc1cc2c(cc1OCCCC(=O)Nc1cc(C(=O)Nc3ccc4sccc4c3)n(C)c1)N=C[C@@H]1CCCN1C2=O`: the concentration for half-maximal inhibition (IC50) at DNA gyrase [10] is 3890 nM.

Compound `COc1ccc2c3conc3c(=O)n(CCN3CCC(NCc4nc5c(cc4F)OCC(=O)N5)CC3)c2c1` showed a 50% inhibitory concentration (IC50) against DNA gyrase [2] of 402 nM.

Turning to `COC(=O)CNC(=O)c1ccc(NC(=O)c2cc(Cl)c(Cl)[nH]2)c(OCC(C)C)c1`, half-maximal inhibition against DNA gyrase [2] (IC50) required 2300 nM.

`O=C1Nc2ccccc2/C1=C/c1ccc(OC(=O)c2ccccc2)cc1`: the MIC in test [11] came to 73 µg/mL (≈ 214 µM).

Regarding `CCn1cc(C(=O)N[C@H](CCCNC(=N)N)C(=O)N[C@@H](CC2CCCCC2)C(=O)N[C@H](CCCNC(=N)N)C(=O)N[C@@H](CC2CCCCC2)C(=O)N[C@H](CCCNC(=N)N)C(=O)N[C@@H](CC2CCCCC2)C(N)=O)c(=O)c2ccc(C)nc21`, the IC50 at DNA gyrase [1] is 25000 nM; in the test with Staphylococcus aureus [8], 18 µg/mL (≈ 15.5 µM); in the test on Staphylococcus aureus [12] it was 1 µg/mL (≈ 0.862 µM).

`CCNC(=O)Nc1nc2ccc(NC(=O)Cc3csc(NC(=O)OC(C)(C)C)n3)cc2s1` registered an IC50 against DNA gyrase [2] of 3900 nM.

`CCn1cc(-c2nnc(Nc3ccc(OC)cc3)o2)c(=O)c2cc(Br)c(C)nc21`: the MIC (against Bacillus cereus; in test [13]; in the test on Escherichia coli; in the test with Staphylococcus aureus [14]; with Pseudomonas aeruginosa; in the test with Klebsiella pneumoniae) was 5.7 µg/mL (≈ 12.5 µM) each time. The compound further had an IC50 against DNA gyrase [2] of 8530 nM.

Turning to `CCn1cc(-c2nnc(Nc3ccc(C)cc3)o2)c(=O)c2cc(Br)c(C)nc21`, the MIC (in the test on Bacillus cereus; in test [13]; in the test on Escherichia coli; in the test with Staphylococcus aureus [14]; against Pseudomonas aeruginosa; in the test on Klebsiella pneumoniae) was 5.5 µg/mL (≈ 12.5 µM) each time.
